Entries after “also recorded” stand apart in the source; their conditions may differ.
Legend:
aged mice = assay: Aging-related phenotypes in aged mice after oral gavage; type: in vivo
Description: In some embodiments, provided herein is the administration of VS as a pharmaceutical or nutraceutical composition to treat or prevent pathogenic senescence-related diseases (e.g., liver and lung fibrosis, atherosclerosis, diabetes, osteoarthritis, etc.). In some embodiments, provided herein is the administration of VS as a pharmaceutical or nutraceutical composition to treat or prevent various diverse human cancers, alone or in combination with anti-cancer therapies that result in therapy-induced senescence.

senescent cells = assay: Rescue of VS-induced cell death by NAC; type: cell-based; conditions: FIG. 7A-C
Description: (§1) Experiments were conducted during development of embodiments herein to screen for natural products that provide senolytic activity. A library of diet-derived blood chemicals was screened to identify compounds that selectively induce cell death in human fibroblast BJ cells with therapy-induced senescence by doxorubicin (FIG. 1A). The top candidates identified were tested in a second screen (FIG. 1B) using human fibroblast HCA2 cells with senescence induced by Nutlin3a (p53 activator), RO3306 (CDK1 inhibitor), and BI2436 (PLK1 inhibitor). […] Temporal mechanistic studies of VS were also conducted (FIG. 8A-B).

A549 xenograft = A549 xenograft model combined with senescence induction; type: in vivo; conditions: FIG. 6A-B
[1] = tested on: human fibroblast BJ cells with therapy-induced senescence by doxorubicin; assay: Screen for senolytic effect in cells with therapy-induced senescence; type: cell-based; conditions: senescent BJ cells versus control uninduced cells; FIG. 1A, 2A
Description: (§2) Experiments were conducted during development of embodiments herein to screen for diet-derived dietary substances, natural products, blood chemicals, etc. that provide senolytic activity with reduced “off-target” toxic side effects. A library of diet-derived blood chemicals was screened to identify compounds that selectively induce cell death in human fibroblast BJ cells with therapy-induced senescence by doxorubicin (FIG. 1A). The top candidates identified were tested in a second screen (FIG. 1B) using human fibroblast HCA2 cells with senescence induced by Nutlin3a (p53 activator), RO3306 (CDK1 inhibitor), and BI2436 (PLK1 inhibitor).
as §1

[2] = tested on: CCl4-induced liver fibrosis; assay: CCl4-induced liver fibrosis; type: in vivo; conditions: FIG. 5A-D
type 2 diabetes = conditions: cited from earlier work
[3] = tested on: bleomycin-induced lung fibrosis; assay: Bleomycin-induced lung fibrosis; type: in vivo; conditions: FIG. 4A-D
[4] = tested on: apolipoprotein E-deficient (ApoE-/-) mice; assay: Atherosclerosis model in ApoE-/- mice; type: in vivo
Description: Atherosclerosis-prone apolipoprotein E-deficient (ApoE^−/−) mice were used that display poor lipoprotein clearance with subsequent accumulation of cholesterol ester-enriched particles in the blood, which promote the development of atherosclerotic plaques. Compared to wild type control mice with no disease (WT-ND), the ApoE−/− mice developed atherosclerosis-like disease with accumulation of cholesterol that was stained with Sudan IV showing orange-red color (FIG. 9A, left).

[5] = tested on: human fibroblast HCA2 cells with senescence induced by Nutlin3a, RO3306 and BI2436; assay: Second screen for senolytic effect in induced-senescent HCA2 cells; type: cell-based; conditions: senescent HCA2 cells versus control uninduced cells; FIG. 1B, 2B
Description: as §2, §1

animal models = conditions: cited from earlier work
[6] = aged mice, oral gavage, kidney tissues

O=S(=O)([O-])[O-].[O]=[V+2] [VS, vanadyl sulfate]
aging / senescent cells in vivo (aged mice; FIG. 3A-F): ameliorates aging by eliminating senescent cells | aging-related phenotypes (aged mice; aged mice, oral gavage): improved | serum urea levels (aged mice; aged mice, oral gavage): reducing | gene expression level of CDK inhibitor p16INK4a (aged mice; [6]): reducing | gene expression level of inflammatory cytokine IL-6 (aged mice; [6]): reducing | rescue of VS-induced cell death by NAC (senescent cells): can be rescued by NAC | tumor growth (A549 xenograft): suppresses tumor growth | cell death in senescent BJ cells [1]: selectively triggers cell death; also recorded: selectively induced cell death | therapeutic efficacy in CCl4-induced liver fibrosis [2]: shows therapeutic efficacy | hepatic and muscle insulin sensitivity (type 2 diabetes): improve | therapeutic efficacy in bleomycin-induced lung fibrosis [3]: shows therapeutic efficacy | accumulation of cholesterol in atherosclerotic plaques ([4]; ApoE-/- mice, Sudan IV staining, quantitation, FIG. 9A): reduced | overall total cholesterol level ([4]; ApoE-/- mice, FIG. 9B): reduced | therapeutic efficacy in atherosclerosis model ([4]; FIG. 9A-B): provides therapeutic efficacy | cell death in senescent HCA2 cells [5]: selectively triggers cell death; also recorded: selectively induced cell death | hyperglycemia (animal models): reduce | insulin resistance (animal models): reduce
